Earlier results, collected in publication PMC5078025, “Necrosis-inducing peptide has the beneficial effect on killing tumor cells through neuropilin (NRP-1) targeting” (Oncotarget, 2016).

System: various tumor cells
Settings: four leucine residues of MTD replaced by alanine; cited from earlier work
Source text: We reported a 10-residue long, pro-necrotic peptide derived from the mitochondrial targeting domain (MTD) located in the C-terminal region of Noxa, a BH-3 only protein of Bcl-2 family. The MTD region of Noxa is responsible not only for mitochondrial targeting of Noxa but also for mitochondrial fragmentation induced by Noxa. Two […]) in the region of MTD play a key role in mitochondrial fragmentation induced by Noxa. […] Therefore, we determined whether TU17:MTD could discriminate tumor and normal cells in vitro.

For KLLNLISKLF [MTD], the “killing activity and mitochondrial targeting activity” value is listed as “abolishes the killing activity and mitochondrial targeting activity”.
